Assay results: ChEMBL document CHEMBL3994641, “Design, synthesis, and cytotoxicity of stabilized mycolactone analogs” (Bioorg Med Chem Lett, 2017)

How the values were obtained:
[1] = Stability of the compound in 0.1 M HCl in MeOH at 0.5 mg after 8 hrs by 1H-NMR spectroscopy; assay type: physicochemical
[2] = Drug metabolism assessed as initial E/Zdouble-bond isomerization followed by photocyclization in acetone irradiated with UV light at 1 mg after 2 to 72 hrs by 1H-NMR spectroscopy; assay type: physicochemical
[3] = Stability of the compound in 0.1 M HCl in MeOH at 0.5 mg after 2 hrs by 1H-NMR spectroscopy; assay type: physicochemical
[4] = Thermal stability of the compound in acetone under sunlight at 60 degreeC after 1 day; assay type: physicochemical; settings: 24 h
[5] = Stability of the compound in 1 N NaOH in water/0.1% Triton-X-100; assay type: physicochemical; settings: buffer
[6] = Thermal stability of the compound in acetone under sunlight at 60 degreeC after 10 days; assay type: physicochemical; settings: 240 h
[7] = Stability of the compound in 0.1 M NaOH in MeOH at 0.5 mg after 2 hrs by 1H-NMR spectroscopy; assay type: physicochemical
[8] = Stability of the compound in acetone irradiated with UV light at 1 mg after 2 to 72 hrs by 1H-NMR spectroscopy; assay type: physicochemical
[9] = Stability of the compound in 1 N HCl in water/0.1% Triton-X-100; assay type: physicochemical; settings: buffer
A549 = test: Cytotoxicity against human A549 cells after 72 hrs by CellTiter blue staining based microscopic method; assay type: functional, cell-based; settings: A549, 72 h
[10] = Stability of the compound in 0.1 M NaOH in MeOH at 0.5 mg after 14 hrs by 1H-NMR spectroscopy; assay type: physicochemical
L929 = test: Cytotoxicity against mouse L929 cells after 72 hrs by CellTiter blue staining based microscopic method; assay type: cell-based; settings: L929, 72 h
LOX IMVI = test: Cytotoxicity against human LOXIMVI cells after 72 hrs by CellTiter blue staining based microscopic method; assay type: functional, cell-based
HEK293 = test: Cytotoxicity against human HEK293 cells after 72 hrs by CellTiter blue staining based microscopic method; assay type: cell-based; settings: HEK293, 72 h
[11] = Drug metabolism assessed as E/Z double-bond isomerization by measuring delta4',5'-Z and delta4',5'-E isomers in acetone under sunlight at 60 degreeC after 1 day; assay type: physicochemical; settings: 24 h
[12] = Drug metabolism assessed as compound decomposition in 0.1 M HCl in MeOH at 0.5 mg after 8 hrs by 1H-NMR spectroscopy; assay type: physicochemical; settings: read-out: Drug metabolism
[13] = Drug metabolism assessed as compound decomposition in DMSO/EtOH at -20 degreeC after 3 years; assay type: physicochemical; settings: read-out: Drug metabolism
[14] = Solubility of the compound in water; assay type: physicochemical; settings: buffer
[15] = Stability of the compound in DMSO/EtOH at -20 degreeC assessed as decomposition up to 1 month; assay type: physicochemical
[16] = Solubility of the compound in water/0.1% Triton-X-100/NP-40; assay type: physicochemical; settings: buffer
[17] = Drug metabolism assessed as E/Z double-bond isomerization by measuring delta4',5'-Z and delta4',5'-E isomers in acetone under sunlight at 60 degreeC after 10 days; assay type: physicochemical; settings: 240 h
[18] = Drug metabolism assessed as compound decomposition in neat at room temperature up to 10 days; assay type: physicochemical; settings: read-out: Drug metabolism
[19] = Drug metabolism assessed as compound decomposition in 0.1 M NaOH in MeOH at 0.5 mg after 14 hrs by 1H-NMR spectroscopy; assay type: physicochemical; settings: read-out: Drug metabolism

Row | SMILES | Stability [1] | Drug metabolism [2] | Stability [3] | Stability [4] | Stability [5] | Stability [6] | Stability [7] | Stability [8] | Stability [9] | IC50 (A549) [nM] | Stability [10] | IC50 (L929) [nM] | IC50 (LOX IMVI) [nM] | IC50 (HEK293) [nM] | other results
1 | CC(/C=C/C(=O)O[C@H]1CCCC(=O)O[C@@H]([C@@H](C)C/C(C)=C/[C@@H](C)[C@H](O)C[C@@H](C)O)C/C=C(\C)C[C@@H]1C)=C\[C@@H](C)C/C=C/C(C)=C/[C@H](O)[C@@H](O)C[C@H](C)O | Stable | Metabolite_Notdetected | Stable | Stable | Stable | Stable | Stable | Stable | Stable | 77 | Stable | 53 | 29 | 3 | 
2 | CC(/C=C/C(=O)O[C@H]1CCCC(=O)O[C@@H]([C@@H](C)C/C(C)=C/[C@@H](C)[C@H](O)C[C@@H](C)O)C/C=C(\C)C[C@@H]1C)=C\[C@H](C)C/C=C/C(C)=C/[C@H](O)[C@@H](O)C[C@H](C)O | Stable | Metabolite_Notdetected | Stable | Stable | Stable | Stable | Stable | Stable | Stable | 400 | Stable | 63 | 120 | 83 | 
3 | CC(=CC(/C)=C/C=C/C(C)=C/[C@H](O)[C@@H](O)C[C@H](C)O)/C=C/C(=O)O[C@H]1CCCC(=O)O[C@@H]([C@@H](C)C/C(C)=C/[C@@H](C)[C@H](O)C[C@@H](C)O)C/C=C(\C)C[C@@H]1C (mixture of isomers) |  | Metabolite_Detected | Stable | Stable | Stable | Stable | Stable |  | Stable | 0.77 |  | 13 | 6.9 | 3.2 | Drug metabolism [11]: Metabolite_Detected; degraded at 8 h [12]: 80%; degraded at 26298 h [13]: 20%; solubility [14]: Insoluble; Stability [15]: Stable; solubility [16]: Soluble; Drug metabolism [17]: Metabolite_Detected; degraded at 240 h [18]: 20 to 30%; degraded at 14 h [19]: 90%
